Data set [1] concerns SK-MEL-28 (ATCC HTB-72) cells. Put plainly: in vitro cytotoxic assay, SK-MEL-28 cells. It is filed as cell-based. As to conditions: 72 h; SK-MEL-28 human melanoma monolayer; three days of incubation; Crystal Violet staining; approximate IC50. Here is the method: (§1) Cells were maintained in logarithmic phase of growth in Eagle's Minimum Essential Medium, with Earle's Balanced Salts, with 2.0 mM L-glutamine, with non-essential amino acids, without sodium bicarbonate (EMEM/neaa); supplemented with 10% Fetal Calf Serum (FCS), 10^−2 M sodium bicarbonate and 0,1 g/l penicillin-G+streptomycin sulfate.
(§2) A screening procedure has been carried out to determine and compare the antitumour activity of these compounds, using an adapted form of the method described by Raymond J. Bergeron, Paul F. Cavanaugh Jr., Steven J. Kline, Robert G. Hughes, Jr., Gary T. Elliot and Carl W. Porter. Antineoplastic and antiherpetic activity of spermidine catecholamide iron chelators. Biochem. Bioph. Res. Comm. 1984, 121, 848-854. The antitumour cells employed were P388 (ATCC CCL-46) (suspension culture of a lymphoid neoplasm from DBA/2 mouse), A549 (ATCC CCL-185) (monolayer culture of a human lung carcinoma), HT-29 (ATCC HTB-38) (monolayer culture of a human colon carcinoma) and SK-MEL-28 (ATCC HTB-72) (monolayer culture of a human melanoma).
(§3) A549 (ATCC CCL-185), HT-29 (ATCC HTB-38) and SK-MEL-28 (ATCC HTB-72) cells were seeded into 16 mm wells at 2×10^4 cells per well in 1 ml aliquots of MEM 10FCS containing the indicated concentration of drug. A separate set of cultures without drug was seeded as control growth to ensure that cells remained in exponential phase of growth. All determinations were carried out in duplicate. After three days of incubation at 37° C., 10% CO2 in a 98% humid atmosphere, the wells were stained with 0.1% Crystal Violet. An approximately IC50 was determined by comparing the growth in wells with drug to the growth in wells control.
(§4) The results of the in vitro cytotoxic assays for these compounds (4a), (4b), (4c), (4d), (11a), (12a), (13a), (13b), and (14a) with the cellular lines P388 (ATCC CCL-46), A549 (ATCC CCL-185), HT-29 (ATCC HTB-38) and SK-MEL-28 (ATCC HTB-72) are shown in the following Table.

The subject of data set [2] is HT-29 (ATCC HTB-38) cells. Put plainly: in vitro cytotoxic assay, HT-29 cells. As to conditions: 72 h; HT-29 human colon carcinoma monolayer; three days of incubation; Crystal Violet staining; approximate IC50. It is filed as cell-based. The method, then: as §1, §2, §3, §4
Data set [3] has as its system A549 (ATCC CCL-185) cells. Put plainly: in vitro cytotoxic assay, A549 cells. The class given is cell-based. As to conditions: 72 h; A549 human lung carcinoma monolayer; three days of incubation; Crystal Violet staining; approximate IC50. The method, then: as §1, §2, §3, §4
In data set [4] the test system is P388 (ATCC CCL-46) cells. Put plainly: in vitro cytotoxic assay, P388 cells. The class given is cell-based. As to conditions: 72 h; P388 lymphoid neoplasm from DBA/2 mouse, suspension culture; three days of incubation; approximate IC50 by growth vs control. Here is the method: as §1, §2
P388 (ATCC CCL-46) cells were seeded into 16 mm wells at 1×10^4 cells per well in 1 ml aliquots of MEM 5FCS containing the indicated concentration of drug. A separate set of cultures without drug was seeded as control growth to ensure that cells remained in exponential phase of growth. All determinations were carried out in duplicate.
as §4

The term melting point denotes the temperature, or range, at which the solid turns liquid. One may read the IC50 as the concentration at which inhibition is half-maximal.

In turn, `Cc1ccnc2c1C(=O)c1nccc(C)c1C2=O` [(4c), 4,8-Dimethyl-1,5-diazaanthraquinone] showed a melting point of 253 to 254 °C. The IC50 in data set [1] is 1050 nM. Also, in data set [2], half-maximal inhibition (IC50) required 1050 nM. For the same compound, in data set [3], the IC50 came out at 500 nM. Besides, half-maximal inhibition in data set [4] (IC50) required 4200 nM.
Compound `Cc1cnc2c(c1)C(=O)c1nccc(Cl)c1C2=O` [(11a), 8-Chloro-3-methyl-1,5-diazaanthraquinone] registered a melting point of 208 to 210 °C. This compound also came in with an IC50 in data set [1] of 30 nM. Besides, 40 nM corresponded to half-maximal inhibition in data set [2] (IC50). The same compound yielded an IC50 in data set [3] of 30 nM. The compound also returned a half-maximal inhibitory concentration (IC50) in data set [4] of 150 nM.
The compound `Cc1ccnc2c1C(=O)c1nccc(N(C)C)c1C2=O` [(14a), 4-Dimethylamino-8-methyl-1,5-diazaanthraquinone] returned a melting point of 97 to 100 °C. The same compound displayed an IC50 in data set [1] of 370 nM. In addition, the IC50 in data set [2] was determined as 940 nM. The same compound had an IC50 in data set [3] of 370 nM. In data set [4], 9360 nM corresponded to half-maximal inhibition (IC50).
Compound `Cc1cnc2c(c1)C(=O)c1ncc(C)cc1C2=O` [(4b), 3,7-Dimethyl-1,5-diazaanthraquinone] yielded a melting point of more than 300 °C. Further, half-maximal inhibition in data set [1] (IC50) was put at 110 nM. The IC50 in data set [2] amounted to 510 nM. Half-maximal inhibition in data set [3] (IC50) required 50 nM. The IC50 in data set [4] worked out at 7350 nM.
As to `CC1C=CN(N(C)C)C2=C1C(=O)c1nccc(Cl)c1C2=O` (stereo not shown) [(12a), 8-Chloro-1-dimethylamino-4-methyl-1,4-dihydro-1,5-diazaanthraquinone], the IC50 came to 330 nM in data set [1], 1650 nM in data set [2], 330 nM in data set [3] and 3290 nM in data set [4].
As to `CCc1cnc2c(c1)C(=O)c1ncc(CC)cc1C2=O` [(4a), 3,7-Diethyl-1,5-diazaanthraquinone], the melting point was in the range of 218 to 220 °C. The same compound returned a 50% inhibitory concentration (IC50) in data set [1] of 50 nM. In addition, in data set [2], inhibition was half-maximal at 190 nM (IC50). Moreover, in data set [3], the concentration for half-maximal inhibition (IC50) stood at 50 nM. In addition, in data set [4], the IC50 amounted to 450 nM.
On to `O=C1c2nccc(-c3ccccc3[N+](=O)[O-])c2C(=O)c2nccc(Cl)c21` [(13b), 4-Chloro-8-(o-nitrophenyl)-1,5-diazaanthraquinone], for which the half-maximal inhibitory concentration (IC50) was found to be 70 nM in data set [1], 270 nM in data set [2], 30 nM in data set [3] and 270 nM in data set [4].
Regarding `CCc1c(C)cnc2c1C(=O)c1ncc(C)c(CC)c1C2=O` [(4d), 4,8-Diethyl-3,7-dimethyl-1,5-diazaanthraquinone], the melting point is 180 to 182 °C. The same compound yielded an IC50 in data set [1] of 3400 nM. Besides, the IC50 in data set [2] is 3400 nM. For the same compound, the midpoint of inhibition in data set [3], the IC50, lay at 3400 nM. In data set [4], this compound had an IC50 of 3400 nM.
In turn, `Cc1ccnc2c1C(=O)c1nccc(Cl)c1C2=O` [(13a), 4-Chloro-8-methyl-1,5-diazaanthraquinone] registered a melting point of more than 300 °C. In addition, the half-inhibitory concentration (IC50) in data set [1] turned out to be 190 nM. Further, in data set [2], inhibition was half-maximal at 1930 nM (IC50). The compound further showed an IC50 in data set [3] of 190 nM. The IC50 in data set [4] was determined as 3870 nM.

These data come from patent US6525063B2, “Antitumour 1,5-diazaanthraquinones” (Universidad Complutense de Madrid, priority 1998, dated 2003).
